Laboratory results: US6818780B2, “P-hydroxyphenyl propionic acid derivatives as antiproliferative agents” (Consejo Superior de Investigaciones Cientificas, priority 2000, dated 2004)

Tested on: human peripheral blood mononuclear cells (CMSP)
Experiment: Test on lymphocyte proliferation: human peripheral blood mononuclear cells (3H-thymidine incorporation), with or without rhIL-2
Assay type: cell-based
Details: 5 days; for Proliferation of human peripheral blood mononuclear cells, Con A 2 μg/ml (cpm ± DS) / Proliferation of human peripheral blood mononuclear cells, Medium (cpm ± DS) / Proliferation of human peripheral blood mononuclear cells, PHA 10 μg/ml (cpm ± DS) / Proliferation of human peripheral blood mononuclear cells, aCD3 5 μg/ml (cpm ± DS) / Proliferation of human peripheral blood mononuclear cells, aCD3 + Con A (cpm ± DS) / Proliferation of human peripheral blood mononuclear cells, aCD3 + PHA (cpm ± DS): no rhIL-2; for Proliferation of human peripheral blood mononuclear cells in the presence of rhIL-2, Con A 2 μg/ml (cpm ± DS) / Proliferation of human peripheral blood mononuclear cells in the presence of rhIL-2, Medium (cpm ± DS) / Proliferation of human peripheral blood mononuclear cells in the presence of rhIL-2, PHA 10 μg/ml (cpm ± DS) / Proliferation of human peripheral blood mononuclear cells in the presence of rhIL-2, aCD3 5 μg/ml (cpm ± DS) / Proliferation of human peripheral blood mononuclear cells in the presence of rhIL-2, aCD3 + Con A (cpm ± DS) / Proliferation of human peripheral blood mononuclear cells in the presence of rhIL-2, aCD3 + PHA (cpm ± DS): rhIL-2 100 UI/ml
Source text: Tests on Human Peripheral Blood Mononuclear Cells Material and Methods:
In order to study more deeply the effects of lactone on cell proliferation, we checked whether the effects described in the above section on cells of murine origin were specific to the cell type and the species or whether, on the other hand, these effects were xeno-independent. For this, we purified human peripheral blood mononuclear cells from healthy controls and we proceeded to study the possible effects of inhibition on the proliferative activity of peripheral blood mononuclear cells (CMSP) from humans, induced by different mitogenic agents acting alone and/or in costimulation with other mitogens and in the presence or absence of recombinant human interleukin 2 (rhIL-2).
Mitogens: Phytohaemaglutinin M (PHA) (Difco Lab., Detroit, Mich., USA), Concanavalin A (Con A, 2 μg/ml, Sigma Chemical Co., Mich., USA), Immobilised anti-CD3 (OKT3, 5 μg/ml, Ortho-mune, Orthodiagnostic System) and rhIL-2 (100 IU/ml, Hoffman-La Roche, N.J., USA).
All the reagents included in these tests were diluted in RPMI 1640 culture medium (Whitaker Bioproducts, Walkersville, USA) supplemented with 10% of decomplemented foetal calf serum (Biochrom K G, Berlin), L-glutamin (2 mM, Biochrom K G), Hepes (25 mM, Biochrom K G) and antibiotic (1% penicillin streptomycin, Difco Lab, Detroit, Mich., USA).
Also, all the mitogens were optimised in a dose response way in order to obtaining the maximum proliferative response after 5 days of culture.
Venous blood: The CMSP were obtained from venous blood extracted by antecubital venous puncture. 50 ml of blood were extracted to which were added 50 U of calcic heparin and the mixture was diluted 1/1 (vol/vol) with PSS.
Human mononucleated cells: In order to isolate the CMSP they were proceeded to be separated from the rest of the blood components by means of the formation of a density gradient on Ficoll. The cells thus obtained are resuspended in PSS and centrifuged at 400×g for 10 minutes (washing process) and then resuspended in PSS. This operation is repeated three times. In the last of them, PSS is replaced with complete medium.
General culture conditions: All cell cultures were developed under conditions of sterility in a vertical laminar flow chamber, using single-use sterile materials or materials sterilised in an autoclave or with ethylene oxide. The cultures were conserved in a stove kept at a temperature of 37° C., in an atmosphere with 5% CO2 and relative humidity of 95%. In the various experiments performed, the purified CMSP cell preparations were incubated in sterile dishes with 96 wells at concentrations of 5×10^4 cells/well (200 μl) in the presence of different concentrations of different mitogens for 5 days.
The method used for quantifying the cell proliferation was analysis of the incorporation of ^3H-thymidine (^3H-T) into DNA synthesised de novo, detecting the emission of β radiation from the dry extracts of cell cultures to which the tritiated base had been added before its finalisation and collection. The synthesis of DNA was done in triplicate on sterile dishes with 96 flat-bottom wells.
From 20 to 24 hour prior to terminating the cell culture, 1 μCi of ^3H-T was added to each well containing medium; the cultures were gathered by suction through a glass filter, using a Skatron culture collector for this.
The synthesis of DNA has been expressed in counts per minute (cpm). Each test was conducted in triplicate, with those data having a variability greater than 10% compared to the mean of the triplicate being rejected, since they could indicate a technical error or contamination in the culture. The cultures were carried out at a constant cell volume per well, as well as at a constant volume of 200 μl.
Negative Control: Cells in the Presence of Complete Culture Medium
Positive Control: Stimulation of Cells without the Presence of Lactone […]

C=C1C(=O)OC(CCc2ccc(OC)cc2)C1C (stereo not drawn) [lactone]
Proliferation of human peripheral blood mononuclear cells, Con A 2 μg/ml (cpm ± DS) (Lactone 0.0001 μg/ml): 75329 ± 9144 cpm | Proliferation of human peripheral blood mononuclear cells, Medium (cpm ± DS) (Lactone 0.0001 μg/ml): 3175 ± 1574 cpm | Proliferation of human peripheral blood mononuclear cells, PHA 10 μg/ml (cpm ± DS) (Lactone 0.0001 μg/ml): 76612 ± 15020 cpm | Proliferation of human peripheral blood mononuclear cells, aCD3 5 μg/ml (cpm ± DS) (Lactone 0.0001 μg/ml): 44721 ± 4082 cpm | Proliferation of human peripheral blood mononuclear cells, aCD3 + Con A (cpm ± DS) (Lactone 0.0001 μg/ml): 115090 ± 4133 cpm | Proliferation of human peripheral blood mononuclear cells, aCD3 + PHA (cpm ± DS) (Lactone 0.0001 μg/ml): 105395 ± 375 cpm | Proliferation of human peripheral blood mononuclear cells in the presence of rhIL-2, Con A 2 μg/ml (cpm ± DS) (Lactone 0.0001 μg/ml): 96972 ± 18274 cpm | Proliferation of human peripheral blood mononuclear cells in the presence of rhIL-2, Medium (cpm ± DS) (Lactone 0.0001 μg/ml): 56451 ± 4965 cpm | Proliferation of human peripheral blood mononuclear cells in the presence of rhIL-2, PHA 10 μg/ml (cpm ± DS) (Lactone 0.0001 μg/ml): 130524 ± 8929 cpm | Proliferation of human peripheral blood mononuclear cells in the presence of rhIL-2, aCD3 5 μg/ml (cpm ± DS) (Lactone 0.0001 μg/ml): 87091 ± 7078 cpm | Proliferation of human peripheral blood mononuclear cells in the presence of rhIL-2, aCD3 + Con A (cpm ± DS) (Lactone 0.0001 μg/ml): 154981 ± 15723 cpm | Proliferation of human peripheral blood mononuclear cells in the presence of rhIL-2, aCD3 + PHA (cpm ± DS) (Lactone 0.0001 μg/ml): 133621 ± 12440 cpm | Proliferation of human peripheral blood mononuclear cells, Con A 2 μg/ml (cpm ± DS) (Lactone 0.01 μg/ml): 55503 ± 9023 cpm | Proliferation of human peripheral blood mononuclear cells, Medium (cpm ± DS) (Lactone 0.01 μg/ml): 2867 ± 1527 cpm | Proliferation of human peripheral blood mononuclear cells, PHA 10 μg/ml (cpm ± DS) (Lactone 0.01 μg/ml): 71092 ± 3555 cpm | Proliferation of human peripheral blood mononuclear cells, aCD3 5 μg/ml (cpm ± DS) (Lactone 0.01 μg/ml): 40378 ± 219 cpm | Proliferation of human peripheral blood mononuclear cells, aCD3 + Con A (cpm ± DS) (Lactone 0.01 μg/ml): 93139 ± 3070 cpm | Proliferation of human peripheral blood mononuclear cells, aCD3 + PHA (cpm ± DS) (Lactone 0.01 μg/ml): 67011 ± 8270 cpm | Proliferation of human peripheral blood mononuclear cells in the presence of rhIL-2, Con A 2 μg/ml (cpm ± DS) (Lactone 0.01 μg/ml): 54196 ± 80 cpm | Proliferation of human peripheral blood mononuclear cells in the presence of rhIL-2, Medium (cpm ± DS) (Lactone 0.01 μg/ml): 42568 ± 8631 cpm | Proliferation of human peripheral blood mononuclear cells in the presence of rhIL-2, PHA 10 μg/ml (cpm ± DS) (Lactone 0.01 μg/ml): 106754 ± 698 cpm | Proliferation of human peripheral blood mononuclear cells in the presence of rhIL-2, aCD3 5 μg/ml (cpm ± DS) (Lactone 0.01 μg/ml): 39771 ± 3258 cpm | Proliferation of human peripheral blood mononuclear cells in the presence of rhIL-2, aCD3 + Con A (cpm ± DS) (Lactone 0.01 μg/ml): 130949 ± 16623 cpm | Proliferation of human peripheral blood mononuclear cells in the presence of rhIL-2, aCD3 + PHA (cpm ± DS) (Lactone 0.01 μg/ml): 94165 ± 15647 cpm | Proliferation of human peripheral blood mononuclear cells, Con A 2 μg/ml (cpm ± DS) (Lactone 1 μg/ml): 13294 ± 3395 cpm | Proliferation of human peripheral blood mononuclear cells, Medium (cpm ± DS) (Lactone 1 μg/ml): 1805 ± 1870 cpm | Proliferation of human peripheral blood mononuclear cells, PHA 10 μg/ml (cpm ± DS) (Lactone 1 μg/ml): 25118 ± 6642 cpm | Proliferation of human peripheral blood mononuclear cells, aCD3 5 μg/ml (cpm ± DS) (Lactone 1 μg/ml): 1286 ± 255 cpm | Proliferation of human peripheral blood mononuclear cells, aCD3 + Con A (cpm ± DS) (Lactone 1 μg/ml): 829 ± 484 cpm | Proliferation of human peripheral blood mononuclear cells, aCD3 + PHA (cpm ± DS) (Lactone 1 μg/ml): 8689 ± 5361 cpm | Proliferation of human peripheral blood mononuclear cells in the presence of rhIL-2, Con A 2 μg/ml (cpm ± DS) (Lactone 1 μg/ml): 71210 ± 5211 cpm | Proliferation of human peripheral blood mononuclear cells in the presence of rhIL-2, Medium (cpm ± DS) (Lactone 1 μg/ml): 9548 ± 808 cpm | Proliferation of human peripheral blood mononuclear cells in the presence of rhIL-2, PHA 10 μg/ml (cpm ± DS) (Lactone 1 μg/ml): 110507 ± 698 cpm | Proliferation of human peripheral blood mononuclear cells in the presence of rhIL-2, aCD3 5 μg/ml (cpm ± DS) (Lactone 1 μg/ml): 36280 ± 77 cpm | Proliferation of human peripheral blood mononuclear cells in the presence of rhIL-2, aCD3 + Con A (cpm ± DS) (Lactone 1 μg/ml): 66429 ± 9241 cpm | Proliferation of human peripheral blood mononuclear cells in the presence of rhIL-2, aCD3 + PHA (cpm ± DS) (Lactone 1 μg/ml): 88220 ± 3174 cpm | Proliferation of human peripheral blood mononuclear cells, Con A 2 μg/ml (cpm ± DS) (Lactone 10 μg/ml): 48 ± 7 cpm | Proliferation of human peripheral blood mononuclear cells, Medium (cpm ± DS) (Lactone 10 μg/ml): 72 ± 72 cpm | Proliferation of human peripheral blood mononuclear cells, PHA 10 μg/ml (cpm ± DS) (Lactone 10 μg/ml): 71 ± 14 cpm
